Assay results published in the NIST ThermoML archive (doi:10.1021/acs.jced.6b00819).
Numbers after ± are expanded uncertainties.

Experiment: wn = mass fraction of the nth substance listed
Details: 100 kPa, Liquid, Pycnometric method

- mass density (313.15 K, w1 = 0.446): 1238 ± 2 kg/m3
- mass density (353.15 K, w1 = 0.481): 1242 ± 2 kg/m3
Compound: N.N.O=S(=O)(O)O [ammonium sulfate] + O
